No end group written: not given here.
Legend:
Assay type in all cases: cell-based, human
[1] = test system: TAP1 serum (Taiwan Miltenberger antibody positive sample); assay: Anti-MUT serum (TAP1) reactivity of modified RBCs (saline and AHG); set-up: key: 0 or ‘−’ no agglutination; 0 or ‘−’ no agglutination; 1+ or 3=very weak agglutination; 1+ or 3=very weak agglutination; 2+ or 5=weak agglutination; 2+ or 5=weak agglutination; 3+ or 8=moderate strong agglutination; 3+ or 8=moderate strong agglutination; 4+ or 10/12=strong agglutination; 4+ or 10/12=strong agglutination; 4+ or 10/12=strong agglutination; conditions: construct 50 μg/ml (2 hours, 37° C.)
Method: (§1) The suspensions are either: • 1. incubated for 2 hours at 37° C. before being washed and suspended in a cell medium for serological analysis at a concentration of 0.8 to 3% (Method 1); or • 2. incubated for 3 to 4 hours at room temperature (circa 25° C.) followed by 18 hours at 4° C. before being washed and suspended in a cell medium for serological analysis at a concentration of 0.8 to 3% (Method 2).
(§2) Serological reactions are graded or scored by either of two established systems (0 or ‘−’ no agglutination, 1+ or 3=very weak agglutination, 2+ or 5=weak agglutination, 3+ or 8=moderate strong agglutination, 4+ or 10/12=strong agglutination)

[2] = test system: Miltenberger antibody positive sera; assay: BioVue AHG card column agglutination serology of modified red blood cells; set-up: key: 0 or ‘−’ no agglutination; 0 or ‘−’ no agglutination; 1+ or 3=very weak agglutination; 1+ or 3=very weak agglutination; 2+ or 5=weak agglutination; 2+ or 5=weak agglutination; 3+ or 8=moderate strong agglutination; 3+ or 8=moderate strong agglutination; 4+ or 10/12=strong agglutination; 4+ or 10/12=strong agglutination; 4+ or 10/12=strong agglutination; conditions: construct 50 μg/ml
Method: (§3) Red blood cells are modified by mixing 1 part by volume of washed packed red blood cells with 1 part by volume of peptide-lipid construct dispersed at a concentration of 10 to 1000 pg/ml in cell media (Celpresol™).
as §1, §2
(§4) Serological platforms used are Tube (addition of reagents and reactants into plastic or glass serology tubes and after appropriate incubations, washing and centrifugation observing reactions macroscopically by eye and a 10× magnification eyepiece and scoring) and BioVue™ (addition of reactants into cassettes containing beads (including some reactants) and after appropriate incubations and centrifugation observing the reaction patterns trapped within the Gel matrix). BioVue is the serological column agglutination platform of Ortho-Clinical Diagnostics. Diamed is the serological column agglutination platform of Diamed AG.

[3] = test system: Miltenberger Antibody Positive Panel; assay: Reactivity of modified RBCs against the Miltenberger Antibody Positive Panel; set-up: key to score vs panel 15 TAP2 / score vs panel 4 T7202 / score vs panel 8 T5896 / score vs panel 2 T217 / score vs panel 3 T165 / score vs panel 14 TAP1 / score vs panel 10 Mia / score vs panel 11 Mur / score vs panel 12 Gam / score vs panel 6 T6025 / score vs panel 7 T8445 / score vs panel 9 MIII / score vs panel 13 BoxH / reactivity with Panel Serum #7 (T8445) / agglutination score, Panel Serum #7 (T8445): 0 or ‘−’ no agglutination; 0 or ‘−’ no agglutination; 1+ or 3=very weak agglutination; 1+ or 3=very weak agglutination; 2+ or 5=weak agglutination; 2+ or 5=weak agglutination; 3+ or 8=moderate strong agglutination; 3+ or 8=moderate strong agglutination; 4+ or 10/12=strong agglutination; 4+ or 10/12=strong agglutination; 4+ or 10/12=strong agglutination; conditions: for score vs panel 2 T217 / score vs panel 3 T165 / score vs panel 4 T7202 / score vs panel 8 T5896 / score vs panel 14 TAP1 / score vs panel 15 TAP2: Table 8, construct 50 μg/ml
Method: as §3, §1, §2, §4

antibody negative serums = assay: False positive reactions of modified RBCs with antibody negative serums/plasma; set-up: key to Reaction score BioVue AHG, PAC samples 1-46, 49, 50, 52, 53 / Reaction score BioVue AHG, PAC sample 47 / Reaction score BioVue AHG, PAC sample 48 / Reaction score BioVue AHG, PAC sample 51 / agglutination score, T series serum 2 / agglutination score, T series serum 42 / agglutination score, T series serum 63 / agglutination score, T series serum 62 / agglutination score, T series serum 7 / agglutination score, T series serum 20 / agglutination score, T series serum 48 / agglutination score, T series serum 22 / agglutination score, T series serum 39 / agglutination score, T series serum 23 / agglutination score, T series serum 30 / agglutination score, T series serum 4 / agglutination score, T series serum 31 / agglutination score, T series serum 44 / agglutination score, T series serum 61 / agglutination score, T series serum 18 / agglutination score, T series serum 21 / agglutination score, T series serum 28 / agglutination score, T series serum 55 / agglutination score, false positive serum T18 / agglutination score, false positive serum T21 / agglutination score, false positive serum T28 / agglutination score, false positive serum T55 / agglutination score, false positive serum T78 / agglutination score, false positive serum T92: 0 or ‘−’ no agglutination; 0 or ‘−’ no agglutination; 1+ or 3=very weak agglutination; 1+ or 3=very weak agglutination; 2+ or 5=weak agglutination; 2+ or 5=weak agglutination; 3+ or 8=moderate strong agglutination; 3+ or 8=moderate strong agglutination; 4+ or 10/12=strong agglutination; 4+ or 10/12=strong agglutination; 4+ or 10/12=strong agglutination
[4] = blood donor plasma, construct 50 μg/ml (2 hours, 37° C.)

Substance | Reactivity with anti-MUT serum TAP1 [1] | BioVue score vs TAP1 [2] | BioVue score vs positive sample 2 T217 (T) [2] | BioVue score vs positive sample 3 T165 (Mur) [2] | BioVue score vs positive sample 4 T7202 (M) [2] | BioVue score vs positive sample 8 T5896 (M + K + Mur) [2] | score vs panel 2 T217 [3] | score vs panel 3 T165 [3] | score vs panel 4 T7202 [3] | score vs panel 8 T5896 [3] | score vs panel 14 TAP1 [3] | score vs panel 15 TAP2 [3] | Reaction score BioVue AHG, PAC sample 47 (antibody negative serums; [4]) | Reaction score BioVue AHG, PAC sample 48 (antibody negative serums; [4]) | Reaction score BioVue AHG, PAC sample 51 (antibody negative serums; [4]) | Reaction score BioVue AHG, PAC samples 1-46, 49, 50, 52, 53 (antibody negative serums; [4]) | % False Positives (antibody negative serums; panel of blood donor plasma samples (PAC), BioVue AHG, construct 50 μg/ml) | sensitivity and specificity towards a human polyclonal antibody panel compared with sequence 1 ([3]; MUT peptides, prior art sequence 1)
M33: DOPE peptide-lipid construct: MUTK peptide QTNDKHKRDTY, leader c, spacer CMG(2) (QTNDKHKRDTYC; also: DOPE peptide-lipid construct via leader Cys, spacer CMG(2)) | 3 | 3 | 0 | 0 | 0 | 0 | 0 | 0 | 0 | 0 | 8 | 0 |  |  |  |  |  | 
M37: DOPE peptide-lipid construct: MUTK peptide TNDKHKRDTYP, leader c, spacer CMG(2) (TNDKHKRDTYPC; also: DOPE peptide-lipid construct via leader Cys, spacer CMG(2)) | 8 | 8 | 5 | 0 | 8 | 0 | 5 | 0 | 8 | 0 | 8 | 0 | 0 | 0 | 0 | 0 | 0% | superior sensitivity and specificity

From patent US10919941B2, “Functional lipid constructs” (KODE BIOTECH LIMITED, priority 2007, dated 2021)
